Common to all, as to experiment: biochemical
One assay addresses T1, D(4) dopamine receptor (Homo sapiens, UniProt P21917).
T1 sequence (P21917 whole entry): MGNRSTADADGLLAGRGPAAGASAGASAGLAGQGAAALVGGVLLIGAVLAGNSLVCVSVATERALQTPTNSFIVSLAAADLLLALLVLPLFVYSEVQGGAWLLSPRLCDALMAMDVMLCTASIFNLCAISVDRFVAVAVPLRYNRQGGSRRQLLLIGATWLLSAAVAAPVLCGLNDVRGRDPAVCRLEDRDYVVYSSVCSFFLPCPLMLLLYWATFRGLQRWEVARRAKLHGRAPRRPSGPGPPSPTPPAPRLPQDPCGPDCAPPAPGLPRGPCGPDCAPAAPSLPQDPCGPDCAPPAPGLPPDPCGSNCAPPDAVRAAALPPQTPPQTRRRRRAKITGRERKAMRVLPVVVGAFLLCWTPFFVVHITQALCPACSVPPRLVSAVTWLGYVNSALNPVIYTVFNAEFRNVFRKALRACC

A further assay concerns the target D(3) dopamine receptor (Homo sapiens, UniProt P35462).
A further assay concerns the target D(2) dopamine receptor (Homo sapiens, UniProt P14416).

The structures appear in SMILES notation.

Sequence of D(3) dopamine receptor (P35462 whole entry): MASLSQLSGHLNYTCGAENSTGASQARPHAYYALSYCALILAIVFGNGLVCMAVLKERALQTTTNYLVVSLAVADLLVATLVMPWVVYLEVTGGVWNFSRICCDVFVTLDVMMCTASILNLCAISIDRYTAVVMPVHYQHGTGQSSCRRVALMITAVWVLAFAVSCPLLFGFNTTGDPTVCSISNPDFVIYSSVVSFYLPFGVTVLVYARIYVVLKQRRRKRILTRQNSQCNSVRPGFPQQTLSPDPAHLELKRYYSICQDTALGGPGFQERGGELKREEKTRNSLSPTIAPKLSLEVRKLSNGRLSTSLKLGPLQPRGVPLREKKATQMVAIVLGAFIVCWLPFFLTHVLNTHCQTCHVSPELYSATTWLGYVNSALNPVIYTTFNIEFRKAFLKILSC
Sequence of D(2) dopamine receptor (P14416 whole entry): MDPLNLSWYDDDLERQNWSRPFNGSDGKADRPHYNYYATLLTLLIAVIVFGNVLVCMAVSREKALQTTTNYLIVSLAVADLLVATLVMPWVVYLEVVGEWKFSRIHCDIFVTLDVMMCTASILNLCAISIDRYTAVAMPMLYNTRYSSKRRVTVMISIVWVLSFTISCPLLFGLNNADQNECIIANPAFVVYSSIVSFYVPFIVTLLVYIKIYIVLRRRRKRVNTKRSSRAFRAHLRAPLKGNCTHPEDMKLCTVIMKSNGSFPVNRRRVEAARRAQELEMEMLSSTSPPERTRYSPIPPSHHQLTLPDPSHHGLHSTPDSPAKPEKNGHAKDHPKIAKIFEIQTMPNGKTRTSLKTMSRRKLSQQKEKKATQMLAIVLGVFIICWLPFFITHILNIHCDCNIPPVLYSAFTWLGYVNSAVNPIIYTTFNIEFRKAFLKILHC
Description for D(2) dopamine receptor: Displacement of the radioligand [3H]spiperone from the cloned human Dopamine receptor D2 long expressed in CHO cells
Description for D(3) dopamine receptor: Displacement of the radioligand [3H]YM-09151-2 from cloned human Dopamine receptor D3 expressed in CHO cells
Description for D(4) dopamine receptor: Displacement of the radioligand [3H]spiperone from the cloned human dopamine receptor D4 expressed in CHO cells

Consider `COc1ccccc1N1CCN(CCCCc2cc(-c3cccc([N+](=O)[O-])c3)no2)CC1`, for which the Ki at D(4) dopamine receptor was 50 nM; at D(3) dopamine receptor, 6 nM; at D(2) dopamine receptor it was 295 nM.
Regarding `COc1ccc(-c2cc(CCCCN3CCN(C(c4ccccc4)c4ccccc4)CC3)on2)cc1OC`, the results for the Ki at D(4) dopamine receptor, at D(3) dopamine receptor and on D(2) dopamine receptor were 2440 nM, 20 nM and 2620 nM, respectively.
In the same order, the values of `c1ccc(C(c2ccccc2)N2CCN(CCCCc3cc(-c4cccs4)no3)CC2)cc1` are 2150 nM, 52 nM and 620 nM.
In the same order, the values of `c1ccc(-c2cc(CCCCN3CCN(c4ccccc4)CC3)on2)cc1` are 541 nM, 18 nM and 3370 nM.
The like results for `CCOc1ccccc1N1CCN(CCCCc2cc(-c3ccc(OC)c(OC)c3)no2)CC1` were, in that order, 28 nM, 2.6 nM and 119 nM.
Regarding `Fc1ccc(-c2cc(CCCCN3CCN(C(c4ccccc4)c4ccccc4)CC3)on2)cc1`, the Ki at D(4) dopamine receptor is 1350 nM; on D(3) dopamine receptor it was 30 nM; on D(2) dopamine receptor, 1460 nM.
In the same order, the values of `COc1ccccc1N1CCN(CCCCc2cc(-c3cccs3)no2)CC1` are 21 nM, 4.7 nM and 726 nM.
On to `C(=C\c1cc(CCCCN2CCN(C(c3ccccc3)c3ccccc3)CC2)on1)/c1ccccc1`, for which the inhibition constant (Ki) on D(4) dopamine receptor is 603 nM; at D(3) dopamine receptor, 40 nM; at D(2) dopamine receptor, 491 nM.
The like results for `c1ccc(N2CCN(CCCCc3cc(-c4cccs4)no3)CC2)cc1` were, in that order, 117 nM, 15 nM and 4140 nM.
In the same order, the values of `COc1ccccc1N1CCN(CCCCc2cc(-c3ccccc3)no2)CC1` are 198 nM, 9.5 nM and 1730 nM.
As to `CCOc1ccccc1N1CCN(CCCCc2cc(-c3cccc([N+](=O)[O-])c3)no2)CC1`, the Ki on D(4) dopamine receptor was found to be 51 nM; on D(3) dopamine receptor, 19 nM; on D(2) dopamine receptor, 95 nM.
Consider `COc1ccc(-c2cc(CCCCN3CCN(c4ccccc4C)CC3)on2)cc1OC`, for which the Ki at D(4) dopamine receptor is 413 nM; at D(3) dopamine receptor it was 38 nM; on D(2) dopamine receptor, 1400 nM.
In the same order, the values of `COc1ccccc1N1CCN(CCCCc2cc(-c3ccc(F)cc3)no2)CC1` are 33 nM, 23 nM and 321 nM.
The like results for `COc1ccc(-c2cc(CCCCN3CCN(c4ccccc4)CC3)on2)cc1OC` were, in that order, 774 nM, 24 nM and 3390 nM.
The like results for `COc1ccc(-c2cc(CCCCN3CCN(c4ccccc4)CC3)on2)c(OC)c1` were, in that order, 76 nM, 16 nM and 2200 nM.
As to `C(=C\c1cc(CCCCN2CCN(c3ccccc3)CC2)on1)/c1ccccc1`, the Ki was 346 nM on D(4) dopamine receptor, 27 nM on D(3) dopamine receptor and 9720 nM at D(2) dopamine receptor.
Consider `COc1ccc(-c2cc(CCCCN3CCN(c4ccccc4F)CC3)on2)cc1OC`, for which the Ki on D(4) dopamine receptor is 233 nM; on D(3) dopamine receptor it was 20 nM; at D(2) dopamine receptor, 5150 nM.
The like results for `CCOc1ccccc1N1CCN(CCCCc2cc(-c3cccs3)no2)CC1` were, in that order, 12 nM, 3.9 nM and 194 nM.
The like results for `Cc1ccccc1N1CCN(CCCCc2cc(-c3ccccc3)no2)CC1` were, in that order, 683 nM, 292 nM and 6510 nM.
In the same order, the values of `COc1ccccc1N1CCN(CCCCc2cc(/C=C/c3ccccc3)no2)CC1` are 88 nM, 15 nM and 964 nM.
As to `Cc1ccccc1N1CCN(CCCCc2cc(-c3cccs3)no2)CC1`, the values for the Ki at D(4) dopamine receptor, on D(3) dopamine receptor and on D(2) dopamine receptor were 465 nM, 163 nM and 2110 nM, respectively.
For the compound `Fc1ccc(-c2cc(CCCCN3CCN(c4ccccc4)CC3)on2)cc1`, the Ki at D(4) dopamine receptor worked out at 96 nM; at D(3) dopamine receptor, 12 nM; at D(2) dopamine receptor, 2530 nM.
The like results for `c1ccc(-c2cc(CCCCN3CCN(C(c4ccccc4)c4ccccc4)CC3)on2)cc1` were, in that order, 2240 nM, 15 nM and 486 nM.
The like results for `CCOc1ccccc1N1CCN(CCCCc2cc(-c3ccccc3)no2)CC1` were, in that order, 34 nM, 9 nM and 341 nM.
In the same order, the values of `Fc1ccccc1N1CCN(CCCCc2cc(/C=C/c3ccccc3)no2)CC1` are 58 nM, 10 nM and 585 nM.
`COc1ccc(-c2cc(CCCCN3CCN(c4ccccc4OC)CC3)on2)c(OC)c1`: the Ki at D(4) dopamine receptor turned out to be 34 nM; at D(3) dopamine receptor, 6.5 nM; on D(2) dopamine receptor it was 440 nM.
The like results for `COc1ccc(-c2cc(CCCCN3CCN(c4ccccc4OC)CC3)on2)cc1OC` were, in that order, 257 nM, 5.2 nM and 418 nM.
In the same order, the values of `O=[N+]([O-])c1cccc(-c2cc(CCCCN3CCN(c4ccccc4)CC3)on2)c1` are 1700 nM, 60 nM and 1470 nM.
The like results for `O=[N+]([O-])c1cccc(-c2cc(CCCCN3CCN(C(c4ccccc4)c4ccccc4)CC3)on2)c1` were, in that order, 2310 nM, 19 nM and 1520 nM.
For `COc1ccc(-c2cc(CCCCN3CCN(C(c4ccccc4)c4ccccc4)CC3)on2)c(OC)c1`, the Ki came out at 1120 nM on D(4) dopamine receptor, 16 nM at D(3) dopamine receptor and 3830 nM on D(2) dopamine receptor.

The values above are taken from ChEMBL document CHEMBL1135103, “Design and synthesis of a piperazinylalkylisoxazole library for subtype selective dopamine receptor ligands” (Bioorg Med Chem Lett, 2002).
